Results reported in ChEMBL document CHEMBL3612014, “Discovery of Tyk2 inhibitors via the virtual site-directed fragment-based drug design” (Bioorg Med Chem Lett, 2015).

Key:
[1] = target: T1, Non-receptor tyrosine-protein kinase TYK2 (Homo sapiens, UniProt P29597); experiment: Inhibition of Tyk2 (unknown origin) at 10 uM
[2] = target: T1, Non-receptor tyrosine-protein kinase TYK2; experiment: Inhibition of Tyk2 (unknown origin)
[3] = target: Serine/threonine-protein kinase PAK 4 (Homo sapiens) (UniProt O96013); experiment: Inhibition of PAK4 (unknown origin) at 10 uM
Sequence of Serine/threonine-protein kinase PAK 4 (Homo sapiens) (O96013 whole entry, looked up): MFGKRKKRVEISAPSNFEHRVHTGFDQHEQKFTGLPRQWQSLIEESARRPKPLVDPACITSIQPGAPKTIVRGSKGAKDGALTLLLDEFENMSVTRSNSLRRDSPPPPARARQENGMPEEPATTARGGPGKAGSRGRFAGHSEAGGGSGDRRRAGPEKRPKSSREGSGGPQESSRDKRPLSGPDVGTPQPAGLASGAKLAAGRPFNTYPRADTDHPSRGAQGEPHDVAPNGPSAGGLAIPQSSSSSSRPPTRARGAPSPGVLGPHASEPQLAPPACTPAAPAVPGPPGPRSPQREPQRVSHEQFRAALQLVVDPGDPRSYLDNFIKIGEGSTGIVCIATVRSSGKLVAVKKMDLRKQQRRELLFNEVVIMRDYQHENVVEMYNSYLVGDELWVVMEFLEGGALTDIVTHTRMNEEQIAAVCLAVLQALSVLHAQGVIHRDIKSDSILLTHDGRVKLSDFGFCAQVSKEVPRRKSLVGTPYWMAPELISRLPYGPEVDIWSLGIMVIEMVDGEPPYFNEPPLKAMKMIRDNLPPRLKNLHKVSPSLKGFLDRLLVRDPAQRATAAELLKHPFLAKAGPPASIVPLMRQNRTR

[4] = target: T2, Aurora kinase A (Homo sapiens) (UniProt O14965); experiment: Inhibition of aurora-A (unknown origin) at 10 uM
T2 sequence (whole entry): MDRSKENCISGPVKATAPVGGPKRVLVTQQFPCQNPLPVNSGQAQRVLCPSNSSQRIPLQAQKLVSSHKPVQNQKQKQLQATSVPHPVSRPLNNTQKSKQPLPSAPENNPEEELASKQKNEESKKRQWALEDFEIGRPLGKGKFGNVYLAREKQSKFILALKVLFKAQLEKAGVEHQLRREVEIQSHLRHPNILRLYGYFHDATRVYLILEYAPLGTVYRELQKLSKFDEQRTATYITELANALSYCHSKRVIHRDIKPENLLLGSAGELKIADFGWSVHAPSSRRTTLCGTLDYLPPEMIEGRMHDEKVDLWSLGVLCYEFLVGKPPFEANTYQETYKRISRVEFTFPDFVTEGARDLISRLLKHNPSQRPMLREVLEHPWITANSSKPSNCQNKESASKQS

[5] = target: T3, Tyrosine-protein kinase JAK3 (Homo sapiens) (UniProt P52333); experiment: Inhibition of JAK3 (unknown origin) at 10 uM
T3 sequence (whole entry): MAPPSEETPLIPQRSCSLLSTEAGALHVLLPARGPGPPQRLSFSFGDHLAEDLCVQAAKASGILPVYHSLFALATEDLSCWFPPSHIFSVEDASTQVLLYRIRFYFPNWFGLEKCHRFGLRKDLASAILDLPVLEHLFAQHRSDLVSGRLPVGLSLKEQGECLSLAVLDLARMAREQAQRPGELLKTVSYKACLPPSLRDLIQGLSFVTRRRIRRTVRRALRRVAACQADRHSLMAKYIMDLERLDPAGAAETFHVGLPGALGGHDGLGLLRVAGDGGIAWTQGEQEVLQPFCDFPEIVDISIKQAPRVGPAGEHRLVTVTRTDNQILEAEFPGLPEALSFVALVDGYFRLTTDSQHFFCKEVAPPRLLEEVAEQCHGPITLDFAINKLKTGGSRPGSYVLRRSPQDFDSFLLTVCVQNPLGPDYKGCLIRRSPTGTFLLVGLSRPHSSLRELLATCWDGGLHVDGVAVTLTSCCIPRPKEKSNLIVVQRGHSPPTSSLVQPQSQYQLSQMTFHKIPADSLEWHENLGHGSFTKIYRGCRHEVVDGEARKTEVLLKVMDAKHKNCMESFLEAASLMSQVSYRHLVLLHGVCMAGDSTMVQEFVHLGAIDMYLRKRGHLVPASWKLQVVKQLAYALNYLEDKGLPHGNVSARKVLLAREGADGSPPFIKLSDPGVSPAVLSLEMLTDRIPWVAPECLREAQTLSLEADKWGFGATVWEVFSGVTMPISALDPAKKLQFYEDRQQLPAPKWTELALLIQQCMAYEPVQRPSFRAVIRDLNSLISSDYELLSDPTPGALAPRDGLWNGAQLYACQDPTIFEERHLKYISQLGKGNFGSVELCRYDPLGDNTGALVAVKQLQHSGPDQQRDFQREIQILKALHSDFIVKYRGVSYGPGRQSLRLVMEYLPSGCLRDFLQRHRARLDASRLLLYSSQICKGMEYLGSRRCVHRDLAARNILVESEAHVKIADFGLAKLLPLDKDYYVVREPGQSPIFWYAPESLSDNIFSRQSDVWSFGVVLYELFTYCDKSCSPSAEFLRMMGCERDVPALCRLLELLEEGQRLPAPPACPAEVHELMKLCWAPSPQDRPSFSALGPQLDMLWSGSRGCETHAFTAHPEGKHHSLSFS

[6] = target: Tyrosine-protein kinase JAK2 (Homo sapiens) (UniProt O60674); experiment: Inhibition of JAK2 (unknown origin) at 10 uM
Sequence of Tyrosine-protein kinase JAK2 (Homo sapiens) (O60674 whole entry): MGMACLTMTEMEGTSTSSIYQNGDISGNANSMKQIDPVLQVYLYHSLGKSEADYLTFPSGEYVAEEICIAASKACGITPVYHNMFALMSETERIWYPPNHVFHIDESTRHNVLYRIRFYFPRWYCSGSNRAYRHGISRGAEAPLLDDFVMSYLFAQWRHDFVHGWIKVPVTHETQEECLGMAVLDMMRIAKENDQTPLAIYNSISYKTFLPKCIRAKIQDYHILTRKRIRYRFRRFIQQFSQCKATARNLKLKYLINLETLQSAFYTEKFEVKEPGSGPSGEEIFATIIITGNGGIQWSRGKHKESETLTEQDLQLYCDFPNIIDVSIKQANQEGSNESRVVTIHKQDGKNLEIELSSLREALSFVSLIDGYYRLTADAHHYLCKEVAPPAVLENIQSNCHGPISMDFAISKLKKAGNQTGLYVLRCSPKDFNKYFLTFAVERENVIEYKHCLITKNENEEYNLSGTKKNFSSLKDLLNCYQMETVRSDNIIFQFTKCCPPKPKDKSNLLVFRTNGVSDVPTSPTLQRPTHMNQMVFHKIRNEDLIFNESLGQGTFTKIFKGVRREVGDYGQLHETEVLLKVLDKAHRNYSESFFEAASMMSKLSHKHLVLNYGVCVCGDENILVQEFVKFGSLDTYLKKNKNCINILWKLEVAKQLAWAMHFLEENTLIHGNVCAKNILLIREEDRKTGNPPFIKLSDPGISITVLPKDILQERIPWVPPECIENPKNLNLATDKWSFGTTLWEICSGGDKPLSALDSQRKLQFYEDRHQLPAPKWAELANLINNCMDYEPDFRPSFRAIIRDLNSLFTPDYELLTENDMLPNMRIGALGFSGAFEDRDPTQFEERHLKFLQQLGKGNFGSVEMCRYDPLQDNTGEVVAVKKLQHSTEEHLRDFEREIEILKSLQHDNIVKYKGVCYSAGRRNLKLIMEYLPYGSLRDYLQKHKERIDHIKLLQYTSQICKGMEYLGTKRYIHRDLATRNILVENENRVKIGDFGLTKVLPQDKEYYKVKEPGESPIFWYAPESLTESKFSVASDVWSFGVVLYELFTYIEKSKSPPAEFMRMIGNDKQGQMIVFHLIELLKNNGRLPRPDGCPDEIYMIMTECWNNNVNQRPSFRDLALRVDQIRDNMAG

[7] = Tmax in Sprague-Dawley rat at 5 mg/kg, iv; assay type: ADME, organism-based; details: in vivo
[8] = Cmax in Sprague-Dawley rat at 5 mg/kg, iv; assay type: ADME, organism-based; set-up: dose 5 mg/kg, route intravenous; details: in vivo
[9] = Terminal half life in Sprague-Dawley rat at 5 mg/kg, iv; assay type: ADME, organism-based; details: in vivo, read-out: beta t1/2 (converted)
[10] = AUC (0 to t) in Sprague-Dawley rat at 5 mg/kg, iv; assay type: ADME, organism-based; details: in vivo
[11] = AUC (0 to infinity) in Sprague-Dawley rat at 5 mg/kg, iv; assay type: ADME, organism-based; set-up: dose 5 mg/kg, route intravenous, time infinity; details: in vivo
[12] = Mean residence time in Sprague-Dawley rat at 5 mg/kg, iv; assay type: ADME, organism-based; details: in vivo
[13] = Systemic plasma clearance in Sprague-Dawley rat at 5 mg/kg, iv; assay type: ADME, organism-based
[14] = Volume of distribution at steady state in Sprague-Dawley rat at 5 mg/kg, iv; assay type: ADME, organism-based; details: in vivo, read-out: Vdss
[15] = Tmax in Sprague-Dawley rat at 5 mg/kg, po; assay type: ADME, organism-based; details: in vivo
[16] = Cmax in Sprague-Dawley rat at 5 mg/kg, po; assay type: ADME, organism-based; set-up: dose 5 mg/kg, route oral; details: in vivo
[17] = Terminal half life in Sprague-Dawley rat at 5 mg/kg, po; assay type: ADME, organism-based; details: in vivo, read-out: beta t1/2 (converted)
[18] = AUC (0 to t) in Sprague-Dawley rat at 5 mg/kg, po; assay type: ADME, organism-based; details: in vivo
[19] = AUC (0 to infinity) in Sprague-Dawley rat at 5 mg/kg, po; assay type: ADME, organism-based; set-up: dose 5 mg/kg, time infinity, route oral; details: in vivo
[20] = Mean residence time in Sprague-Dawley rat at 5 mg/kg, po; assay type: ADME, organism-based; details: in vivo
[21] = Oral bioavailability in Sprague-Dawley rat at 5 mg/kg; assay type: ADME, organism-based; details: in vivo
[22] = target: T1, Non-receptor tyrosine-protein kinase TYK2; experiment: Inhibition of Tyk2 (unknown origin) at 100 uM
[23] = target: T1, Non-receptor tyrosine-protein kinase TYK2; experiment: Inhibition of Tyk2 (unknown origin) at 30 uM
[24] = target: T1, Non-receptor tyrosine-protein kinase TYK2; experiment: Inhibition of Tyk2 (unknown origin) at 3 uM

T1 sequence (P29597 whole entry): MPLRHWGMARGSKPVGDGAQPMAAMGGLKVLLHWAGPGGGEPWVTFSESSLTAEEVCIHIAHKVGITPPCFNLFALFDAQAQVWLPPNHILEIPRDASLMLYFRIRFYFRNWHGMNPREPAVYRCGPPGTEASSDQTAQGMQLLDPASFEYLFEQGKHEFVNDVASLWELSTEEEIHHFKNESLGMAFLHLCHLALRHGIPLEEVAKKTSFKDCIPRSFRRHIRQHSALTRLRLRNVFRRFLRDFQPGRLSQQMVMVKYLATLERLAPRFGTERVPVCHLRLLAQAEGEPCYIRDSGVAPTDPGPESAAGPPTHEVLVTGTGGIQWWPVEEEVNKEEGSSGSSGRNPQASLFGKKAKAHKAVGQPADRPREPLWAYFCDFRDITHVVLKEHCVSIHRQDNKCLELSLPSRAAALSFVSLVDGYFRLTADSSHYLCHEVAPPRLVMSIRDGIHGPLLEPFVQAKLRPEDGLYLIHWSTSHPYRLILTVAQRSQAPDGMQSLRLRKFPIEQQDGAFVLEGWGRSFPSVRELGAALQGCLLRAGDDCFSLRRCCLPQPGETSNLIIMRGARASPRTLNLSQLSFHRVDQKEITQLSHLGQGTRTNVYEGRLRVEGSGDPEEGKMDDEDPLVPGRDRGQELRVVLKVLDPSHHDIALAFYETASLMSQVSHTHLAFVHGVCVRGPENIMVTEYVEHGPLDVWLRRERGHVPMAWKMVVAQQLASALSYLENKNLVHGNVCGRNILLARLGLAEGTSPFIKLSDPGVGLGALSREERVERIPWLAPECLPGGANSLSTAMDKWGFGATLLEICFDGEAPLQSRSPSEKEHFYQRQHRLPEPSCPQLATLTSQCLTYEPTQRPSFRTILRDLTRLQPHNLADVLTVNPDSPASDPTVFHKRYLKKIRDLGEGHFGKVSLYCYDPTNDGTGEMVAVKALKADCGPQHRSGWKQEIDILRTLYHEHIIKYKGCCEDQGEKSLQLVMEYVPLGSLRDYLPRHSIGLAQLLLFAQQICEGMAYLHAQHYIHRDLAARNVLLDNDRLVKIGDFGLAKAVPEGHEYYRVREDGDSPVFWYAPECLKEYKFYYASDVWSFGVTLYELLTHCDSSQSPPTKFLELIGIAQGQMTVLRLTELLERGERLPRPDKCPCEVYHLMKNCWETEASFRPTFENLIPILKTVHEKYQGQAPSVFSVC

With `CC(C)c1nn(C)cc1-c1nc2c(N3CCN(Cc4cccnc4)CC3)c(Br)cnc2[nH]1` the inhibition [1] was 99%, the IC50 [2] was 10 nM and the inhibition [3] was < 50%. The inhibition [4] was > 90%, the inhibition [5] was > 90% and the inhibition [6] was > 90%. It also gave a Tmax [7] of 4.8 min, a Cmax [8] of 1340 ng/mL and a half-life [9] of 49.8 min. The AUC(0-t) [10] was 1420 ng·h/mL, the AUC(0-inf) [11] was 1430 ng·h/mL and the MRT [12] was 47.4 min. It also gave a clearance [13] of 59 mL/min/kg, a Vd [14] of 2.76 L/kg and a Tmax [15] of 19.8 min. For the same compound, the Cmax [16] was 70 ng/mL, the half-life [17] was 105 min and the AUC(0-t) [18] was 80 ng·h/mL. For the same compound, the AUC(0-inf) [19] was 90 ng·h/mL, the MRT [20] was 1.7 h and the bioavailability [21] was 6.07%.
In the case of `CC(C)c1n[nH]cc1-c1nc2cc(Br)cnc2[nH]1`, the inhibition [1] is reported as < 30%.
For `CC(C)c1nn(-c2ccccc2)cc1-c1nc2cc(Br)cnc2[nH]1`, the inhibition [1] was 38%.
For `CC(C)c1nn(C)cc1-c1nc2cc(Br)cnc2[nH]1`, the inhibition [22] was 97%, the inhibition [23] was 92% and the inhibition [24] was 60%. For the same compound, the inhibition [1] was 83%.
